In patent US20150164868A1, “METHODS OF ADMINISTERING RIFAXIMIN WITHOUT PRODUCING ANTIBIOTIC RESISTANCE” (priority 2012, published 2015):
Converted amounts (≈) assume the structure as drawn. Where two headings read alike, the source gives them in different places.

What was measured:
coliforms [1] = experiment: Luminal coliform culture by bowel segment; format: in vivo, Sprague-Dawley rats; conditions: after treatment with rifaximin vs non-treated control rats; bowel segments (FIG. 3)
Excerpt: (§1) For the examination of luminal bacterial counts, rats were euthanized and dissected after 10 days of PBS (n=10) (control), after 10 days of rifaximin (n=10) and 30 days post rifaximin (n=10). During the dissection, pre-specified segments of duodenum, jejunum, ileum, cecum and left colon were ligated and resected as previously described (Pimentel et al. 2008. Dig Dis Sci 53:982-989). Luminal contents were extracted from each segment. For culture of coliforms, serial dilutions were again prepared and plated on MacConkey agar then incubated and counted. In addition, luminal contents were also used to determine total bacterial counts by qPCR.

Staphylococcal spp = experiment: IBS model: Staphylococcus sensitivity testing to rifampin (E-test strips); format: cell-based
Protocol: The effect of rifaximin on Staphylococcal species was tested and antibiotic resistance was examined. The contents of the ligated bowel segments were examined to determine the quantity and type of bacteria by segment and evaluate expression of mucosal cytokines.
Among rats with detectable staphylococcus, rifampin resistance was tested using E-test strips and Data was analyzed by Fisher's Exact Test. […] (Table 2)

coliform bacteria = experiment: Effect of dietary fat with rifaximin on coliform bacteria; format: in vivo, Sprague-Dawley rats; conditions: healthy rats
Protocol: Adult male Sprague-Dawley Rats were randomly assigned to three groups. Group 1 was gavaged daily for 7 days with rifaximin in PBS. Group 2 received rifaximin 200 mg in lipid daily by gavage. Group 3 were 10 rats only given PBS (control). Rats had fresh stool collected by anal stimulation at baseline and daily during gavage. The stool was homogenized and plated by serial dilution on MacConkey Agar (BD Diagnostics, Franklin Lakes, N.J.). This is a selective agar for coliform bacteria. Based on serial dilution, the total number of coliform bacteria was determined.

Staphylococcus spp. [2] = experiment: Rifampicin susceptibility testing (E-test strip) of Staphylococcus colonies isolated from rat stool; format: cell-based; conditions: for MIC: read-out: mean inhibitory concentration (MIC) for rifampicin
Protocol: Rifampicin susceptibility was tested in Staphylococcus spp. isolated from stool of rats before and after rifaximin treatment for 10 days. From PEA plates, 30 random recognizable Staphylococcus colonies were picked for baseline cultures, suspended in PBS and spread on PEA agar plates to create a lawn. A commercially available rifampicin test strip was added to each lawn to detect rifampicin resistance. The range of rifampicin mean inhibitory concentrations (MICs) detected by E-test was 0.002 to 32 μg/mL. Based on manufacturer's instruction, growth at <2 ug/mL was considered sensitive, growth at 2-4 ug/mL was considered intermediate resistance to rifampicin, and growth at >4 ug/mL was considered resistant to rifampicin. After 10 days of rifaximin, stool was again plated on PEA and another 30 staphylococcal colonies were picked for producing a lawn to analyze rifampicin resistance using the applied test strip. Since no significant Staphylococcus spp. colonies remained on day 30 post rifaximin treatment, sensitivity testing could not be assessed.

Staphylococcus = experiment: IBS model (post C. jejuni): presence of Staphylococcus after rifaximin; format: in vivo, Sprague-Dawley rats; conditions: rats with IBS phenotype; 51 rats rifaximin vs 50 placebo
Protocol: Following acute infection with C. jejuni, rats develop a phenotype of IBS and small intestinal bacterial overgrowth. For the examination of antibiotic resistance following rifaximin treatment in subject with IBS, 100 Sprague-Dawley rats were gavaged with 10^8 cfu of C. jejuni 81-176 within 30 minutes of gavage with a bicarbonate solution using a ball-tipped gavage needle. After gavage rats were followed with daily stool culture for C. jejuni for seven consecutive days to verify infection. In addition, stool was characterized on the basis of consistency.
Thirty days from gavage, stool samples were collected on two consecutive days to confirm absence of C. jejuni in stool. Once rats were confirmed to have cleared C. jejuni, they were housed in common conditions for a period of three months. […]
The rats were then randomized and received either a 200 mg dose of rifaximin in PBS or PBS alone daily for 10 days. […] Upon completion of treatment with rifaximin, the rats were monitored for an additional seven days. […]
The effect of rifaximin on Staphylococcal species was tested and antibiotic resistance was examined. The contents of the ligated bowel segments were examined to determine the quantity and type of bacteria by segment and evaluate expression of mucosal cytokines. […]

[3] = test system: Staphylococcus, Streptococcus, Enterococcus, and Enterobacteriaceae; conditions: species of Staphylococcus; cited from earlier work
total bacteria = experiment: qPCR of total luminal bacteria by bowel segment; format: in vivo, Sprague-Dawley rats
Excerpt: as §1
To quantify bacteria in the luminal contents, qPCR was used. DNA was isolated from luminal contents of the duodenal, jejunal, ileal, cecal and left colon samples using commercially available kits. Bacterial universal primers (Mohammadi et al. 2003. J Clin Microbiol 41(10):4796-4798) were used to amplify the 16S rRNA gene from DNA using a commercially available RT-PCR detection system and optical grade 96-well plates. Samples were run in duplicate. To generate standard curves, the Ct values were analyzed from ten-fold dilutions of lysed Escherichia coli cultures. E. coli from a number of laboratory strains were pooled and grown in LB media.
The same adult male Sprague-Dawley rats from the coliform culture study described above were used here. In this experiment, ten rats were euthanized at day 10 of rifaximin treatment, and ten rats were euthanized at day 30 after completion of rifaximin treatment. As a control to these two groups, a group of 10 rats were gavaged with only PBS (placebo); these rats were also euthanized after 10 days. After euthanasia, rats were dissected to remove a segment of ileum, jejunum and duodenum as well as cecum and left colon. Luminal contents from these 5 areas were removed, and DNA was extracted. Quantitative PCR (qPCR) was used to determine the total number of bacteria in each segment of bowel. These counts were compared between control, rifaximin treated and 30 day post rifaximin rats (Example 1).

Staphylococcus spp. [4] = experiment: Stool Staphylococcus spp. colony counts (PEA agar) during and after daily rifaximin gavage; format: in vivo, Sprague-Dawley rats
Excerpt: Adult male Sprague-Dawley rats were acquired and quarantined for 5 days. During this time, chow was standardized to ensure all animals had identical feeding type.
(§2) After this equilibration period, fresh stool was collected from each rat (n=30) by anal stimulation. The stool collected on Day 0 was homogenized and plated by serial dilution with 1XPBS (Phosphate Buffered Saline) on Blood Agar with Phenylethyl Alcohol (PEA) to select for the presence of the Staphylococcal spp. Similarly, homogenized stool was serially plated on MacConkey agar to select for and determine coliform counts in the stool. All plates were incubated for 24 hours at 37° C. Based on serial stool dilution and colony counts, the baseline stool levels of Staphylococcus spp. and coliforms were determined
(§3) Rats were divided into 3 treatment groups and gavaged daily for 10 days with or without high dose rifaximin Group 1 was gavaged with PBS alone, Group 2 was gavaged daily with rifaximin 200 mg in PBS. Groups 1 and 2 were euthanized after the 10 days of daily gavage. Group 3 was gavaged daily with rifaximin 200 mg in PBS and housed for 30 days following completion of rifaximin before euthanasia. During the rifaximin treatment, fresh stool was collected daily as described above. Again, stool was homogenized and plated by serial dilution on MacConkey and PEA agar to determine coliform and Staphylococcus spp. counts during the treatment. After the completion of 10 days of treatment, 10 rats were euthanized for bacterial quantitation by culture and qPCR throughout the intestinal tract. The remaining 10 rats were followed for 30 days after completing rifaximin. These rats had interval stool culture for quantitation of Staphylococcus spp. and coliforms and the determination of recovery time of stool flora if any.

[5] = oral administration; Descombe et al. 1994; cited from earlier work
coliforms [6] = experiment: Stool coliform culture (MacConkey agar) with rifaximin gavage; format: in vivo, Sprague-Dawley rats
Protocol: as §2
as §3, with “Again, stool was homogenized and plated by serial dilution on MacConkey and PEA agar to determine coliform and Staphylococcus spp. counts during the treatment.” left out, “The remaining 10 rats were followed for 30 days after completing rifaximin.” left out

[7] = Staphylococcus from IBS-phenotype rats treated with rifaximin
[8] = sensitivity to rifampin, IBS-phenotype rats treated with rifaximin
[9] = after 10 days of gavage with rifaximin, 30 random colonies
[10] = all rats receiving rifaximin (n=20) vs control rats

(2S,16Z,18E,20S,21S,22R,23R,24R,25S,26S,27S,28E)-5,6,21,23,25 Pentahydroxy-27-methoxy-2,4,11,16,20,22,24,26-octamethyl-2,7-(epoxypentadeca-(1,11,13)trienimino)benzofuro(4,5-e)pyrido(1,2,-a)benzimidazole-1,15(2H)-dione,25-acetate) [rifaximin]
change in luminal coliform counts by culture (coliforms [1]): no significant change in coliform counts by culture | Median MIC of rifampin (Staphylococcal spp; [7]): 0.214 µg/mL | Range of rifampin MIC (Staphylococcal spp; [7]): 0.012 to 16 µg/mL | rifampin resistance of Staphylococcus after treatment (Staphylococcal spp; rats with an IBS phenotype, detectable staphylococcus, Fisher's Exact Test): no evidence of rifampin resistance | % of rats with resistance (Staphylococcal spp; resistance to rifampin, 51 IBS-phenotype rats treated with rifaximin): 1.96% | # of intermed Staphylococcal spp (Staphylococcal spp; [8]): 0 | # of resistant Staphylococcal spp (Staphylococcal spp; [8]): 1 | # of sensitive Staphylococcal spp (Staphylococcal spp; [8]): 10 | normal flora (coliform) counts in the small bowel (coliform bacteria; rifaximin by itself or with oil as dissolving media): did not appear to change normal flora counts | median coliform count in the duodenum (coliform bacteria; rifaximin in PBS or rifaximin 200 mg in lipid, daily gavage 7 days): 0 | Staphylococcal colonies Intermediate (2-4 ug/mL) resistance to rifampin, % (Staphylococcus spp. [2]; [9]): 3.3% | Staphylococcal colonies Sensitive (<2 ug/mL) to rifampin, % (Staphylococcus spp. [2]; [9]): 96.6% | rate of colonization of rats with Staphylococcus (Staphylococcus): reduction in the rate of colonization | antibacterial activity in vitro [3]: active | durability of the reduction in duodenal bacteria counts by qPCR (total bacteria; after 10 days of rifaximin and 30 days post, P=0.08, not quite significant): sustained 30 days after the completion of rifaximin | duodenal total bacterial counts by qPCR (total bacteria; [10]): significant reduction in duodenal bacterial counts | jejunal total bacterial counts by qPCR (total bacteria; [10]): appeared to diminish as well, this did not reach statistical significance | total bacterial counts by qPCR in the ileum, cecum or left colon (total bacteria; [10]): no differences were seen | Staphylococcus spp. colonies in stool 30 days after rifaximin (Staphylococcus spp. [4]; 30 days after completion of 10 days rifaximin): insufficient Staphylococcus spp. colonies in any of the rats to analyze | range of total count of Staphylococcus spp in stool (Staphylococcus spp. [4]; after 10 days of rifaximin 200 mg daily gavage, 20 rats): 0-8.6×10^5 cfu/ml | median total count of Staphylococcus spp in stool (Staphylococcus spp. [4]; after 10 days of rifaximin 200 mg daily gavage, total of S. aureus and coag-Staphylococcus, 20 rats, p<0.01 vs baseline): 1.20×10^5 cfu/ml | level of S. aureus in stool of rats with detectable S. aureus (Staphylococcus spp. [4]; day 10 of rifaximin treatment): 2×10^3 cfu/ml | number of rats with detectable S. aureus in stool (Staphylococcus spp. [4]; day 10 of rifaximin treatment, of 20 rats (18/20 at baseline)): 5 | time course of Staphylococcus spp in stool (Staphylococcus spp. [4]; during rifaximin 200 mg daily gavage): diminish significantly in stool by day 3 | systemic absorption [5]: negligible systemic absorption | time to recovery of stool coliform count (coliforms [6]; after the 10-day rifaximin treatment): three | median stool coliform count (coliforms [6]; day 10 of high dose rifaximin, P<0.01 vs baseline): 2.2×10^3 cfu/mL

CO[C@H]1/C=C/O[C@@]2(C)Oc3c(C)c(O)c4c(O)c(c(/C=N/N5CCN(C)CC5)c(O)c4c3C2=O)NC(=O)/C(C)=C\C=C\[C@H](C)[C@H](O)[C@@H](C)[C@@H](O)[C@@H](C)[C@H](OC(C)=O)[C@@H]1C [rifampicin]
MIC (Staphylococcus spp. [2]; 240 h, Staphylococcus colonies from rat stool after 10 days of high dose rifaximin, P=0.63 vs baseline): 0.91 ± 0.52 µg/mL (≈ 1.11 µM) | MIC (Staphylococcus spp. [2]; Staphylococcus colonies from rat stool at baseline (before rifaximin)): 1.1 ± 1.6 µg/mL (≈ 1.34 µM)
